Values quoted from earlier work as cited in patent US6071534A, “Multivesicular liposomes with controlled release of active agents encapsulated in the presence of a hydrochloride” (priority 1998, dated 2000).

Conditions: after IP, IV, IT, IA, IM or SC dose

For `Nc1ccn([C@@H]2O[C@H](CO)[C@@H](O)[C@@H]2O)c(=O)n1` [cytarabine, cytosine arabinoside], the half-life is given as “very short”.
